We go through seven molecules from US11980645B2, “Bile acids and use in disease treatment” (The Regents of the University of California, priority 2019, dated 2024).

The nature of data set [1]: LC-MS/MS screen of murine portal and peripheral blood for conjugated bile acids. An excerpt: Portal and peripheral blood was collected from additional SPF (n=4) and GF (n=6) mice and screened for the presence of conjugated bile acids.
Bile Acids in Murine Portal and Peripheral Blood. An additional 4 SPF and 6 GF female mice of the same strain analyzed for the initial study on the microbial metabolome were raised for analysis of blood. Portal blood and peripheral blood were sampled as described in the methods section and analyzed with the same LC-MS/MS protocols as the original animals.

For data set [2], the system named is FXR effector genes Fgf15, Shp, Cyp7a1, Cyp8b1. Nature of the data set: Bile acid gavage of mice, RT-qPCR of downstream FXR effector genes in ileum and liver. As to conditions: for Fgf15 expression in the intestine, increase / Shp expression in the intestine, increase: oral gavage 500 mg/kg in corn oil.
Description: The gene expression of Fgf15 and Shp in the ileum and Shp, Cyp8b1 and Cyp7a1 in the liver of mice gavaged with bile acids of interest were analyzed using quantitative reverse transcriptase-PCR analysis. The expression levels were normalized to the cellular housekeeping gene ribosomal phosphoprotein PO (36B4).
Bile acid Gavage of Mice. Eight-week-old Male C57BL/6J mice (Jackson Laboratory) were acclimated for 14 days and housed in groups of two throughout the duration of the experiment to mitigate cage effects. Mice were then dosed 2 times (24 hour) or 4 times (72 hour) (t=0 hr, t=24 hr, t=48 hr, t=72 hr) by oral gavage with either a mock control of corn oil without bile acids, or corn oil infused Tyr-chol (500 mg/kg body weight), Leu-chol (500 mg/kg body weight), cholic acid (500 mg/kg body weight) or the control FXR agonist GW4064 (10 mg/kg body weight). Starting 3 hours after the last gavage (t=75 hr, 72 hour treatment or t=25, 24 hour treatment), mice were euthanized by CO2 asphyxiation and samples were collected within a 6 hour period and snap frozen in a liquid nitrogen bath and stored at −80° C. prior to analysis. […] Ileum and liver samples were used for qPCR.
RT-qPCR Analysis of Downstream FXR Gene Expression. Mouse liver and ileum segments were directly homogenized in TRIzol and total RNA isolated. cDNA was synthesized from 1 μg of DNase-treated total RNA using Bio-Rad iScript Reverse Transcription supermix (#1708841) and mRNA levels of Fgf15, Shp, Cyp7b1 and Cyp7a1 were quantified by quantitative PCR with Advanced Universal SyBr Green Supermix (Bio-Rad, cat #725271). All samples were run in technical triplicates and relative mRNA levels were calculated by using the standard curve methodology and normalized to 36B4.
The test system of data set [3] is human fecal batch culture. Nature of the data set: Incubation with actively growing human fecal batch culture (metabolism by microbiota). As to conditions: 10 μM bile acid, 24 h. The class given is in vitro ADME. The text has this: FIGS. […]. Distribution and metabolism of novel conjugated bile acids. FIG. 9a) Molecular network of SPF duodenum MS/MS data and synthesized amino acid conjugated bile acids. LC-MS/MS data from synthetic standards was networked with murine samples and spectral matching through molecular networking is indicated by node greyscale. Mirror plots showing the alignment between the murine and standards are shown. Nodes shaped as arrowheads had hits in the GNPS libraries and node size is scaled to the spectral count. Tauro=Taurocholic acid. These experiments were repeated twice. FIG. 9b) 3D-molecular cartography of the mean abundance of the newly discovered conjugates mapped onto a 3D-rendered model of the murine GI tract as a heatmap according to the greyscale. Organs are labeled as described in FIG. 1. FIG. 9c) Molecular network of GF and SPF portal and peripheral blood conjugated bile acids. Nodes are colored by source as either GF and SPF or portal/peripheral blood. Arrowhead nodes represent known compounds in the GNPS spectral database, circular nodes represent unknowns. The annotations are through spectral matches against reference libraries (level 2 or 3^3). FIG. 9d) Mean area under curve abundance and standard deviations of bile acids of interest during incubation with an actively growing batch human fecal culture for 24 h (n=3). FIG. 9e) Molecular network of novel conjugated bile acids after incubation in a human fecal batch culture experiment. Each node represents a unique MS/MS spectrum and arrowhead shaped nodes indicate known spectra in the GNPS database. The nodes are greyscale by their retention time according to the legend and the mass shift between nodes are mapped onto the edge representing the cosine connection between related spectra. The H2 mass shift representing oxidation of the novel conjugates is shown. FIG. 9f) Mean ion intensity and standard deviations of the dehydrogenated forms of Phe-chol, Tyr-chol and Leu-chol through the 24 h batch fecal culture incubation (n=3).
Fecal Culture Bioreactor Inoculation. A 4 g stool sample was resuspended in 40 mL modified yeast casitone fatty acids media (mYCFA, DMSZ recipe) with 0.25% Antifoam B Silicon Emulsion (Baker) in a vinyl anaerobic chamber (Coy). The resuspension was centrifuged at 500× g for 5 minutes to pellet solids. The supernatant was decanted through a sterile […] filter. The filtrate was centrifuged at 4450× g for 10 minutes to pellet cells. The supernatant was discarded, and the pellet was resuspended in 40 mL mYCFA. The resuspension was drawn into a 60 mL syringe and injected into a 500 mL vessel of an Infors Multifors 2 bioreactor. The chemostat process parameters was modified from a previous process developed in^26. The chemostat volume parameters were; 400 mL culture volume, 24-hour retention rate, 50 mL/min nitrogen, stirrer at 250 rpm, and 37° C. temperature. […] 15 μL stocks were added to 12 mL mYCFA. After 11 days of continuous culturing, 24 mL bioreactor culture was withdrawn and transferred to the anaerobic chamber. 3 mL culture was added to the 12 mL mYCFA aliquots with the bile acids, for a total volume of 15 mL and final concentration of 10 μM bile acid. The cultures were vortexed and split into three 5 mL aliquots. At time 0 (blanks for each bile acid), 1, 3, 6, 12 and 24 hours, 0.1 mL aliquots were removed from the samples for metabolomics and 16S rRNA gene sequencing. […]

Another data set addresses T1, human FXR (Homo sapiens, UniProt Q96RI1).
T1 sequence (Q96RI1 1-486): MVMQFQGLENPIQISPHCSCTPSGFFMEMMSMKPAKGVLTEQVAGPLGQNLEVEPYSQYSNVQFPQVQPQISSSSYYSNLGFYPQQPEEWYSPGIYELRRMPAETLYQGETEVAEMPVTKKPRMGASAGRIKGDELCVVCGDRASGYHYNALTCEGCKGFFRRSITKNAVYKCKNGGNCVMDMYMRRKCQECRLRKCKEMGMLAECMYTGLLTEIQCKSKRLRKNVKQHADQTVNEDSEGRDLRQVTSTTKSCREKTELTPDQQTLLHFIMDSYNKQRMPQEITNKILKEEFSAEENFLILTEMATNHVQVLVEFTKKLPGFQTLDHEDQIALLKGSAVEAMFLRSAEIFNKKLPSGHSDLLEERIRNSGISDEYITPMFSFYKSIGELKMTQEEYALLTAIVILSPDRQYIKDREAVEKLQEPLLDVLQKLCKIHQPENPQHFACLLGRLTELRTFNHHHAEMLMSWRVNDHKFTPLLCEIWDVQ
T1 sequence (P19793 1-462 partner): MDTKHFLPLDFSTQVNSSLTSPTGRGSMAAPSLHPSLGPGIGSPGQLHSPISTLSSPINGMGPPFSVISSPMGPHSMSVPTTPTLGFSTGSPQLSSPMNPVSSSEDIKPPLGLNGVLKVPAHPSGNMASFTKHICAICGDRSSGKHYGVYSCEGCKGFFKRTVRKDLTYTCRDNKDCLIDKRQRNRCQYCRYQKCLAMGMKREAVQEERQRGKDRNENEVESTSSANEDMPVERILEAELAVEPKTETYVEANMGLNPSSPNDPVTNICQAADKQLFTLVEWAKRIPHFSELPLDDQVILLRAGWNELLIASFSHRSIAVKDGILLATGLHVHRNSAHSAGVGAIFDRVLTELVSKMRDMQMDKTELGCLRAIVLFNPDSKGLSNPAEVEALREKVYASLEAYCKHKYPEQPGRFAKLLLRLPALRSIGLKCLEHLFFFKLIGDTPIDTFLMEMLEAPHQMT
Nature of the data set: FXR luciferase reporter assay in HEK-293 cells. Conditions: for human FXR agonism: HEK-293 luciferase reporter.

Description for human FXR: To assess the ability of the novel bile acids from the invention to affect human FXR signaling, a luciferase reporter assay was established in HEK-293 embryonic kidney cells^39.
Human kidney cell line HeK-293 was obtained from American Type Culture Collection (ATCC CRL-1573, tested for Mycoplasma contamination every 6 months). These cells were chosen due to their high transfectability and low FXR expression which allows for a robust signal to noise ratio. These 293 cells were cultured in Dulbecco's modified Eagle's medium/F-12 (DMEM) supplemented with 10% (V/V heat-inactivated fetal calf serum (FBS) and 100 units/ml penicillin G and 100 μg/ml streptomycin. 10,000 cells were seeded per well in 96-well plates one day before transfection of plasmids. DNA was transiently transfected by Lipofectamine 2000 and Opti-MDM in fasting state. The ratio of plasmid used in per well were 50 ng of FXR response element (FXRE)/luciferase reporter plasmid, 10 ng of pCMV-3flag-FXR (human) plasmid, 10 ng of pCMV-RXR (human) plasmid, and 5 ng of Renilla luciferase reporter plasmid as internal standard for transfection efficiency. […] Cells were harvested 24 hrs later and lysed with passive lysis buffer (Promega). Luciferase activities were measured by the Dual-Luciferase Reporter (DLR™) Assay kit and read by Luminometer (Perkin Elmer). The final Luciferase activities were normalized by dividing the relative light units by Renilla luciferase activity. Statistical analyses were performed using Prism software. Each dosage was done in 12 replicates.

For `C[C@H](CCC(=O)NCCS(=O)(=O)O)[C@H]1CC[C@H]2[C@@H]3[C@H](O)C[C@@H]4C[C@H](O)CC[C@]4(C)[C@H]3C[C@H](O)[C@]12C` [TCA, Taurocholic acid, reference compound], the “presence in portal and peripheral blood” value in data set [1] (SPF (n=4) and GF (n=6) mice, endogenous) was “present”.

With `CC(C)c1onc(-c2c(Cl)cccc2Cl)c1COc1ccc(/C=C/c2cccc(C(=O)O)c2)c(Cl)c1` [GW4064, reference compound], the “ileum Shp expression vs corn oil control (significance)” value in data set [2] (gavage, 24 hr) was “significance was also reached”.

Consider `C[C@H](CCC(=O)N[C@@H](Cc1ccc(O)cc1)C(=O)O)[C@H]1CC[C@H]2[C@@H]3[C@H](O)C[C@@H]4C[C@H](O)CC[C@]4(C)[C@H]3C[C@H](O)[C@]12C` [Tyr-chol, tyrosocholic acid], for which, in data set [3], the “deconjugation by the microbiota” value is “not deconjugated”. Also, the “presence in portal and peripheral blood” value in data set [1] (mouse, in vivo) was “not found”. Besides, on human FXR, the concentration giving a half-maximal response (EC50) worked out at 0.14 µM and the “human FXR agonism” value is reported as “strong human FXR agonists”. Besides, in data set [2] (gavage, 24 hr), the “ileum Fgf15 expression vs corn oil control (significance)” value is recorded as “significantly elevated”. In data set [2] (gavage, 24 hrs), the “Shp expression in the liver” value is given as “did not change detectably”, the “liver Cyp7a1 expression” value is reported as 9 % of control, the “liver Cyp7a1 expression vs corn oil control (significance)” value is on record as “significantly reduced” and the “liver Cyp8b1 expression” value is 69 % of control. Moreover, the “liver Cyp8b1 expression vs corn oil control (significance)” value in data set [2] (gavage, 24 hrs) is on record as “significantly reduced”. In data set [2] (gavage, 72 hrs), the “Shp expression in the liver, increase” value is listed as 2.3 fold; the “ileum Fgf15 signaling vs corn oil control (significance)” value is given as “significantly increased”; the “ileum Shp signaling vs corn oil control (significance)” value was “significantly increased”; the “liver Cyp7a1 expression vs corn oil control (significance)” value is reported as “significantly reduced”. For the same molecule, in data set [2] (gavage, 72 hrs), the “liver Cyp8b1 expression vs corn oil control (significance)” value is “significantly reduced” and the “liver Shp expression vs corn oil control (significance)” value is recorded as “significantly elevated”. For the same molecule, in data set [2] (gavage, 72 hrs (4 gavages)), the “liver Cyp7a1 expression” value is 8 % of control and the “liver Cyp8b1 expression” value was 2 % of control. Further, in data set [2] (24 hrs), the “Fgf15 expression in the intestine, increase” value came out at 12.2 fold and the “Shp expression in the intestine, increase” value came out at 13.3 fold. For the same molecule, in data set [2] (72 hrs (4 gavages)), the “Fgf15 expression in the intestine, increase” value is 6.2 fold and the “Shp expression in the intestine, increase” value is listed as 9.3 fold.

As for `C[C@H](CCC(=O)N[C@@H](Cc1ccccc1)C(=O)O)[C@H]1CC[C@H]2[C@@H]3[C@H](O)C[C@@H]4C[C@H](O)CC[C@]4(C)[C@H]3C[C@H](O)[C@]12C` [Phe-chol, phenylalanocholic acid], the “deconjugation by the microbiota” value in data set [3] was “not deconjugated”. The “presence in portal and peripheral blood” value in data set [1] (mouse, in vivo) was “not found”. In addition, at human FXR, the EC50 amounted to 4.5 µM and the “human FXR agonism” value is “strong human FXR agonists”.

As to `CC(C)C[C@H](NC(=O)CC[C@@H](C)[C@H]1CC[C@H]2[C@@H]3[C@H](O)C[C@@H]4C[C@H](O)CC[C@]4(C)[C@H]3C[C@H](O)[C@]12C)C(=O)O` [Leu-chol, leucocholic acid], the “deconjugation by the microbiota” value in data set [3] is “not deconjugated”. For the same molecule, the “presence in portal and peripheral blood” value in data set [1] (mouse, in vivo) is “not found”. In data set [2] (gavage, 24 hrs), the “liver Cyp7a1 expression vs corn oil control (significance)” value is listed as “significantly reduced” and the “liver Cyp8b1 expression vs corn oil control (significance)” value was “significantly reduced”. For the same molecule, in data set [2] (gavage, 72 hrs), the “ileum Fgf15 signaling vs corn oil control (significance)” value is reported as “significantly increased”, the “ileum Shp signaling vs corn oil control (significance)” value is reported as “significantly increased”, the “liver Cyp7a1 expression vs corn oil control (significance)” value was “significantly reduced” and the “liver Cyp8b1 expression vs corn oil control (significance)” value is reported as “significantly reduced”. For the same molecule, the “liver Shp expression vs corn oil control (significance)” value in data set [2] (gavage, 72 hrs) is recorded as “significantly elevated”.

Regarding `C[C@H](CCC(=O)O)[C@H]1CC[C@H]2[C@@H]3[C@H](O)C[C@@H]4C[C@H](O)CC[C@]4(C)[C@H]3C[C@H](O)[C@]12C` [cholic acid, reference compound], the “ileum Shp expression vs corn oil control (significance)” value in data set [2] (gavage, 24 hr) is recorded as “significance was also reached”. In data set [2] (gavage, 24 hrs), the “liver Cyp7a1 expression vs corn oil control (significance)” value is given as “significantly reduced” and the “liver Cyp8b1 expression vs corn oil control (significance)” value is listed as “significantly reduced”. For the same molecule, in data set [2] (gavage, 72 hrs), the “ileum Fgf15 signaling vs corn oil control (significance)” value is recorded as “significantly increased”, the “ileum Shp signaling vs corn oil control (significance)” value is reported as “significantly increased”, the “liver Cyp7a1 expression vs corn oil control (significance)” value is “significantly reduced” and the “liver Cyp8b1 expression vs corn oil control (significance)” value was “significantly reduced”.

On to `C[C@H](CCC(=O)NCC(=O)O)[C@H]1CC[C@H]2[C@@H]3[C@H](O)C[C@@H]4C[C@H](O)CC[C@]4(C)[C@H]3C[C@H](O)[C@]12C` [GCA, glycocholic acid, reference compound], for which, in data set [3], the “deconjugation by the microbiota” value was “deconjugation readily occurred” and the “oxidation of the cholate core by microbial enzymes” value is reported as “no concurrent oxidation”. In addition, the “presence in portal and peripheral blood” value in data set [1] (mouse, in vivo) is recorded as “present”.
